# ChEMBL document CHEMBL3885881, “DrugMatrix”
# Organism: Rattus norvegicus
# Assay: DrugMatrix - Regimen: Daily Repeat
# Format: toxicity, organism-based, Sprague-Dawley
# Design: regimen Daily Repeat, gender Male, age 6-8 weeks
# Settings: in vivo, sc, route subcutaneous, […]; for ABSOLUTE BASOPHIL / ABSOLUTE EOSINOPHIL / ABSOLUTE LYMPHOCYTE / ABSOLUTE MONOCYTE / ABSOLUTE SEGMENTED NEUTROPHIL / BASOPHIL / EOSINOPHIL / ERYTHROCYTE COUNT / HEMATOCRIT / HEMOGLOBIN / LEUKOCYTE COUNT / LYMPHOCYTE / MEAN CORPUSCULAR HEMOGLOBIN / MEAN CORPUSCULAR HEMOGLOBIN CONCENTRATION / MEAN CORPUSCULAR VOLUME / MONOCYTE / NEUTROPHIL / NUCLEATED RED BLOOD CELLS / PLATELET COUNT: tissue Blood; for ALANINE AMINOTRANSFERASE / ALBUMIN / ALKALINE PHOSPHATASE / ASPARTATE AMINOTRANSFERASE / BLOOD UREA NITROGEN / CARBON DIOXIDE / CHLORIDE / CHOLESTEROL / CREATINE PHOSPHOKINASE / CREATININE / GLUCOSE / LACTATE DEHYDROGENASE / LIPASE / PHOSPHORUS / POTASSIUM / SODIUM / TOTAL BILIRUBIN / TOTAL PROTEIN / URIC ACID: tissue Plasma
# [1] = 0 mg/kg, 72 h, dose level Control, time 3 day
# [2] = 0 mg/kg, 120 h, dose level Control, time 5 day
# [3] = 27 mg/kg, 72 h, dose level Low, time 3 day
compound,measurement,setting,value
Clc1ccc(CSC(Cn2ccnc2)c2ccc(Cl)cc2Cl)cc1 (centres undefined) [SULCONAZOLE],ABSOLUTE BASOPHIL,[1],0 CELLS/uL
same,ABSOLUTE EOSINOPHIL,[1],42.67 CELLS/uL
same,ABSOLUTE LYMPHOCYTE,[1],10202 CELLS/uL
same,ABSOLUTE MONOCYTE,[1],261.5 CELLS/uL
same,ABSOLUTE SEGMENTED NEUTROPHIL,[1],2193.83 CELLS/uL
same,BASOPHIL,[1],0%
same,EOSINOPHIL,[1],0.33%
same,ERYTHROCYTE COUNT,[1],5.63 x10E6/uL
same,HEMATOCRIT,[1],35.35%
same,HEMOGLOBIN,[1],13.07 G/DL
same,LEUKOCYTE COUNT,[1],12.7 x10E3/uL
same,LYMPHOCYTE,[1],81.17%
same,MEAN CORPUSCULAR HEMOGLOBIN,[1],23.23 pg
same,MEAN CORPUSCULAR HEMOGLOBIN CONCENTRATION,[1],36.97 G/DL
same,MEAN CORPUSCULAR VOLUME,[1],62.82 fL
same,MONOCYTE,[1],2%
same,NEUTROPHIL,[1],16.5%
same,NUCLEATED RED BLOOD CELLS,[1],0 /100WBC
same,PLATELET COUNT,[1],1180.33 x10E3/uL
same,ALANINE AMINOTRANSFERASE,[1],48.67 u/L
same,ALBUMIN,[1],4.08 G/DL
same,ALKALINE PHOSPHATASE,[1],360.67 u/L
same,ASPARTATE AMINOTRANSFERASE,[1],85.5 u/L
same,BLOOD UREA NITROGEN,[1],17.83 mg/dL
same,CARBON DIOXIDE,[1],26.17 mmol/L
same,CHLORIDE,[1],101.83 MEQ/L
same,CHOLESTEROL,[1],71 mg/dL
same,CREATINE PHOSPHOKINASE,[1],515.17 u/L
same,CREATININE,[1],0.22 mg/dL
same,GLUCOSE,[1],192.5 mg/dL
same,LACTATE DEHYDROGENASE,[1],214.67 u/L
same,LIPASE,[1],8.5 u/L
same,PHOSPHORUS,[1],12.95 mg/dL
same,POTASSIUM,[1],6.39 MEQ/L
same,SODIUM,[1],142.38 MEQ/L
same,TOTAL BILIRUBIN,[1],0.18 mg/dL
same,TOTAL PROTEIN,[1],5.95 G/DL
same,URIC ACID,[1],1.83 mg/dL
same,ABSOLUTE BASOPHIL,[2],0 CELLS/uL
same,ABSOLUTE EOSINOPHIL,[2],188.5 CELLS/uL
same,ABSOLUTE LYMPHOCYTE,[2],12360.83 CELLS/uL
same,ABSOLUTE MONOCYTE,[2],64.33 CELLS/uL
same,ABSOLUTE SEGMENTED NEUTROPHIL,[2],1986.33 CELLS/uL
same,BASOPHIL,[2],0%
same,EOSINOPHIL,[2],1.33%
same,ERYTHROCYTE COUNT,[2],5.52 x10E6/uL
same,HEMATOCRIT,[2],35.82%
same,HEMOGLOBIN,[2],13.25 G/DL
same,LEUKOCYTE COUNT,[2],14.6 x10E3/uL
same,LYMPHOCYTE,[2],84.5%
same,MEAN CORPUSCULAR HEMOGLOBIN,[2],24.05 pg
same,MEAN CORPUSCULAR HEMOGLOBIN CONCENTRATION,[2],36.98 G/DL
same,MEAN CORPUSCULAR VOLUME,[2],64.97 fL
same,MONOCYTE,[2],0.5%
same,NEUTROPHIL,[2],13.67%
same,NUCLEATED RED BLOOD CELLS,[2],0 /100WBC
same,PLATELET COUNT,[2],1297.83 x10E3/uL
same,ALANINE AMINOTRANSFERASE,[2],51.17 u/L
same,ALBUMIN,[2],4.08 G/DL
same,ALKALINE PHOSPHATASE,[2],393.17 u/L
same,ASPARTATE AMINOTRANSFERASE,[2],111 u/L
same,BLOOD UREA NITROGEN,[2],18.17 mg/dL
same,CARBON DIOXIDE,[2],25 mmol/L
same,CHLORIDE,[2],105.17 MEQ/L
same,CHOLESTEROL,[2],65.5 mg/dL
same,CREATINE PHOSPHOKINASE,[2],911.5 u/L
same,CREATININE,[2],0.21 mg/dL
same,GLUCOSE,[2],183 mg/dL
same,LACTATE DEHYDROGENASE,[2],189 u/L
same,LIPASE,[2],8.33 u/L
same,PHOSPHORUS,[2],12.78 mg/dL
same,POTASSIUM,[2],6.05 MEQ/L
same,SODIUM,[2],144.57 MEQ/L
same,TOTAL BILIRUBIN,[2],0.25 mg/dL
same,TOTAL PROTEIN,[2],5.83 G/DL
same,URIC ACID,[2],1.58 mg/dL
same,ABSOLUTE BASOPHIL,[3],0 CELLS/uL
same,ABSOLUTE EOSINOPHIL,[3],84.67 CELLS/uL
same,ABSOLUTE LYMPHOCYTE,[3],11847.67 CELLS/uL
same,ABSOLUTE MONOCYTE,[3],101 CELLS/uL
same,ABSOLUTE SEGMENTED NEUTROPHIL,[3],2233.33 CELLS/uL
same,BASOPHIL,[3],0%
same,EOSINOPHIL,[3],0.67%
same,ERYTHROCYTE COUNT,[3],5.29 x10E6/uL
same,HEMATOCRIT,[3],32.9%
same,HEMOGLOBIN,[3],12.1 G/DL
same,LEUKOCYTE COUNT,[3],14.27 x10E3/uL
same,LYMPHOCYTE,[3],83.33%
same,MEAN CORPUSCULAR HEMOGLOBIN,[3],22.9 pg
same,MEAN CORPUSCULAR HEMOGLOBIN CONCENTRATION,[3],36.8 G/DL
same,MEAN CORPUSCULAR VOLUME,[3],62.23 fL
same,MONOCYTE,[3],0.67%
same,NEUTROPHIL,[3],15.33%
same,NUCLEATED RED BLOOD CELLS,[3],0 /100WBC
same,PLATELET COUNT,[3],979.33 x10E3/uL
same,ALANINE AMINOTRANSFERASE,[3],50.67 u/L
same,ALBUMIN,[3],4.07 G/DL
same,ALKALINE PHOSPHATASE,[3],355.67 u/L
same,ASPARTATE AMINOTRANSFERASE,[3],89 u/L
same,BLOOD UREA NITROGEN,[3],18 mg/dL
same,CARBON DIOXIDE,[3],26.33 mmol/L
same,CHLORIDE,[3],105.67 MEQ/L
same,CHOLESTEROL,[3],74.33 mg/dL
same,CREATINE PHOSPHOKINASE,[3],269.33 u/L
same,CREATININE,[3],0.22 mg/dL
same,GLUCOSE,[3],174 mg/dL
same,LACTATE DEHYDROGENASE,[3],83.33 u/L
same,LIPASE,[3],8.33 u/L
same,PHOSPHORUS,[3],14.23 mg/dL
same,POTASSIUM,[3],5.88 MEQ/L
same,SODIUM,[3],146.57 MEQ/L
same,TOTAL BILIRUBIN,[3],0.17 mg/dL
same,TOTAL PROTEIN,[3],5.83 G/DL
same,URIC ACID,[3],1.5 mg/dL
